Tests used:
Experiment in all cases: relative viability (nuclei count vs DMSO), 5 days (fraction); higher = more cells survive
Venetoclax + Crizotinib = compound: CC1(C)CCC(CN2CCN(c3ccc(C(=O)NS(=O)(=O)c4ccc(NCC5CCOCC5)c([N+](=O)[O-])c4)c(Oc4cnc5[nH]ccc5c4)c3)CC2)=C(c2ccc(Cl)cc2)C1 [Venetoclax] + C[C@@H](Oc1cc(-c2cnn(C3CCNCC3)c2)cnc1N)c1c(Cl)ccc(F)c1Cl [Crizotinib] (partner 1 µM)
Outline: (§1)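 Medians of duplicate plates are given as relative viability. That measure is the nuclei count in treated wells divided by the count in vehicle wells. Counts were taken on 4× images of lung cancer cell lines in 1536-well plates, 5 days after pin-tool dosing the day after seeding with one drug alone or a fixed anchor-drug dose plus five library-drug doses (not always all listed) in √10 steps.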

[1] = compound: Cn1cnc2c(F)c(Nc3ccc(Br)cc3Cl)c(C(=O)NOCCO)cc21 [Selumetinib] + CC(=O)c1c(C)c2cnc(Nc3ccc(N4CCNCC4)cn3)nc2n(C2CCCC2)c1=O [Palbociclib] (partner 0.5 µM)
Outline: as §1

Venetoclax + Linsitinib = compound: CC1(C)CCC(CN2CCN(c3ccc(C(=O)NS(=O)(=O)c4ccc(NCC5CCOCC5)c([N+](=O)[O-])c4)c(Oc4cnc5[nH]ccc5c4)c3)CC2)=C(c2ccc(Cl)cc2)C1 [Venetoclax] + C[C@]1(O)C[C@@H](c2nc(-c3ccc4ccc(-c5ccccc5)nc4c3)c3c(N)nccn32)C1 [Linsitinib] (partner 1 µM)
Outline: as §1

Selumetinib + Decitabine = compound: Cn1cnc2c(F)c(Nc3ccc(Br)cc3Cl)c(C(=O)NOCCO)cc21 [Selumetinib] + Nc1ncn([C@H]2C[C@H](O)[C@@H](CO)O2)c(=O)n1 [Decitabine] (partner 2 µM)
Outline: as §1

| Cell Line | relative viability (Venetoclax + Crizotinib; first compound 0.01 µM) | relative viability (Venetoclax + Crizotinib; first compound 0.03162 µM) | relative viability (Venetoclax + Crizotinib; first compound 0.1 µM) | relative viability (Venetoclax + Crizotinib; first compound 0.3162 µM) | relative viability (Venetoclax + Crizotinib; first compound 1 µM) | relative viability ([1]; first compound 0.02 µM) | relative viability ([1]; first compound 0.06325 µM) | relative viability ([1]; first compound 0.2 µM) | relative viability ([1]; first compound 0.6325 µM) | relative viability (Venetoclax + Linsitinib; first compound 0.01 µM) | relative viability (Venetoclax + Linsitinib; first compound 0.03162 µM) | relative viability (Venetoclax + Linsitinib; first compound 0.1 µM) | relative viability (Venetoclax + Linsitinib; first compound 0.3162 µM) | relative viability (Venetoclax + Linsitinib; first compound 1 µM) | relative viability (Selumetinib + Decitabine; first compound 0.02 µM) | relative viability (Selumetinib + Decitabine; first compound 0.06325 µM) | relative viability (Selumetinib + Decitabine; first compound 0.2 µM) | relative viability (Selumetinib + Decitabine; first compound 0.6325 µM) |
| --- | --- | --- | --- | --- | --- | --- | --- | --- | --- | --- | --- | --- | --- | --- | --- | --- | --- | --- |
| LU99A | 0.555 | 0.587 | 0.576 | 0.586 | 0.526 | 0.427 | 0.418 | 0.375 | 0.425 | 0.482 | 0.604 | 0.505 | 0.56 | 0.55 | 0.982 | 0.905 | 0.91 | 0.759 |
| NCI-H522 | – | – | – | – | – | 0.98 | 0.92 | 0.755 | 0.793 | – | – | – | – | – | 0.837 | 0.585 | 0.692 | 0.7 |
| NCI-H596 | 1.14 | 0.893 | 1.02 | 1.02 | 1.02 | – | – | – | – | 1.03 | 1.09 | 1.1 | 1.13 | 1.11 | 0.927 | 0.936 | 0.922 | 0.83 |
| NCI-H1299 | 0.974 | 0.998 | 0.937 | 0.912 | 0.907 | – | – | – | – | 0.987 | 1.02 | 1.06 | 0.926 | 0.936 | – | – | – | – |
| NCI-H1395 | – | – | – | – | – | 0.561 | 0.558 | 0.574 | 0.54 | 0.951 | 0.996 | 1.04 | 1.25 | 1.11 | 0.698 | 0.712 | 0.675 | 0.639 |
| NCI-H1563 | 0.872 | 0.878 | 0.884 | 0.996 | 0.907 | – | – | – | – | 1.16 | 1.29 | 1.28 | 1.4 | 1.24 | – | – | – | – |
| NCI-H1648 | – | – | – | – | – | – | 0.307 | 0.237 | 0.296 | – | – | – | – | – | – | 0.447 | 0.477 | 0.673 |
| NCI-H1650 | 0.831 | 0.986 | – | 0.74 | 0.842 | 0.312 | 0.26 | 0.357 | 0.27 | – | – | – | – | – | 0.392 | 0.353 | 0.424 | 0.39 |
| NCI-H1703 | 0.655 | 0.635 | 0.634 | 1.15 | 0.605 | – | – | – | – | 0.549 | 0.652 | 0.81 | 0.756 | 0.755 | – | – | – | – |
| NCI-H1793 | – | – | – | – | – | 0.267 | 0.293 | 0.249 | 0.199 | 0.905 | 1.04 | 0.692 | 0.818 | 0.778 | 0.494 | 0.527 | 0.468 | 0.401 |
| NCI-H2170 | 1.07 | 1.23 | 1.12 | 1.15 | 1.13 | 0.406 | 0.43 | 0.414 | 0.414 | – | – | – | – | – | 0.469 | 0.488 | 0.452 | 0.439 |
| NCI-H2228 | 0.432 | 0.519 | 0.538 | 0.427 | 0.544 | 0.566 | 0.516 | 0.669 | 0.481 | 0.717 | 0.754 | 0.631 | 0.724 | 0.625 | – | – | – | – |
| NCI-H2342 | – | – | – | – | – | 0.476 | 0.53 | 0.498 | 0.482 | – | – | – | – | – | 0.778 | 0.716 | 0.727 | 0.638 |
| SW 900 | – | – | – | – | – | 0.597 | 0.461 | 0.446 | 0.495 | – | – | – | – | – | 0.43 | 0.409 | 0.441 | 0.504 |
